“Also recorded” adds a separate entry of the source. Blank lines part the entries; values can stand above or below the compound they belong to.
Tests used:
C2C12 cells [1] = assay: Myogenesis of murine myoblast C2C12 cells (MHC-positive multinucleated myotubes, immunofluorescence); type: cell-based; conditions: for myogenesis (GlcNAc vs glucosamine): C2C12, different doses, FIGS. 4A-4F; for number of multinuclear MHC expressing myotubes: C2C12, differentiation stopped after 72 hours
Method: (§1) N-Acetylglucosamine promotes myogenesis of murine myoblasts: Myogenesis of murine myoblast cells, C2C12 cells was induced by replacing the medium from growing medium (DMEM supplemented with 10% fetal calf serum) to DMEM supplemented with 1% horse serum, insulin (10 μg/ml), transferrin (5.5 μg/ml) and selenium (5 ng/ml) in the presence or absence of different doses of N-acetylglucosamine (GlcNAc). This condition induces the differentiation of myoblasts, including the induction of the synthesis of myosine heavy chains (MHC). Then myoblasts start fusing with each other to form myotubes, which are multinucleated. Cells were fixed in 3.8% paraformaldehyde containing phosphate buffered saline (PBS) for 15 min. Then cells were permeabilized by PBS-0.25% Triton X100 for 5 min. After washed with PBS, the cells were incubated with anti-MHC antibody (Clone MF-20, 2.5 μg/ml) in the blocking agents (Vectors laboratories) for an hour, followed by anti-mouse antibody labelled with Alex 488. Then nuclei of the cells were stained with DAPI. Fluorescent images were taken through 20× objectives by using Queorum WaveFX spinning Disc confocal system.
In the condition shown in FIG. 1, the myogenesis was stopped after the differentiation for 72 hours, which was 18 hours after the presence of myotubes became detectable. […] In FIGS. 2A and 2B, the differentiation was stopped at 62 hours. Fields of view (5×5 FOVs) are stitched together and shown here. One FOV is 0.533 mm square. White color is MHC-positive myotube cells.
as §1, with “Glucosamine is a commercially available supplement, which has been claimed to reduce arthritic pain, although there is any scientific evidence to support this claim. It was examined whether glucosamine has any significant effect on the myogenesis.” for “N-Acetylglucosamine promotes myogenesis of murine myoblasts:”, “(GlcNAc) or glucosamine.” for “(GlcNAc).”, “fusing” for “fusing with”, “PBS—0.25%” for “PBS-0.25%”

C2C12 cells [2] = assay: Statin-reduced myogenesis of C2C12 cells with or without Simvastatin; type: cell-based, murine; conditions: C2C12, 44 hours; for myoblast differentiation / myogenesis in the presence of Simvastatin: FIG. 5
Source text: It is estimated that 10-15% of individuals who take statins-related compounds develop statin-related muscle adverse effects, ranging from mild myalgia to more severed muscle symptoms while the mechanism of statin-induced myopathy remains undetermined. In vitro myogenesis, statins-related compounds reduce in vitro myogenesis and stable adhesion of myotubes. Thus, it was examined whether GlcNAc treatment has any significant effect on the statin-reduced myogenesis. Myogenesis of murine myoblast cells, C2C12 cells was induced by replacing the medium from growing medium to differentiation medium as above DMEM in the presence or absence of different doses of N-acetylglucosamine (GlcNAc) with or without Simvastatin for 44 hours. Cells were then fixed in 3.8% paraformaldehyde containing phosphate buffered saline (PBS) for 15 min. Then cells were permeabilized by PBS-0.25% Triton X100 for 5 min. After washed with PBS, the cells were incubated with anti-MHC antibody (Clone MF-20, 2.5 μg/ml) in the blocking agents (Vectors laboratories) for an hour, followed by anti-mouse antibody labelled with Alex 488. Then nuclei of the cells were stained with DAPI. Fluorescent images were taken through 20× objectives by using Queorum WaveFX spinning Disc confocal system.

[3] = tested on: Myoblasts derived from a patient of DM1; assay: Myogenesis of myoblasts derived from a patient of myotonic dystrophy 1; type: cell-based, human; conditions: after 120 hours of differentiation, FIG. 3
Method: It is known that myogenesis is impaired in myotonic dystrophy 1 (DM1). The therapeutic potential of GlcNAc on this impaired myogenesis was thus tested. Myoblasts derived from a patient of DM1 were grown in DMEM supplemented with 20% fetal calf serum till the density of cells reached to 90% confluency. Then, the differentiation was induced by changing the medium to DMEM supplemented with 1% fetal calf serum, 10 μg/ml insulin, and 100 μg/ml apotransferrin. After 120 hours, cells were fixed and MHC in the cells were visualized by the method described in Example 1.

[4] = human, long-term oral administration; cited from earlier work
C2C12 cells [5] = assay: Myogenesis of murine myoblast C2C12 cells (MHC-positive multinucleated myotubes, immunofluorescence); type: cell-based; conditions: FIG. 4

SMILES: CC(=O)N[C@H]1C(O)O[C@H](CO)[C@@H](O)[C@@H]1O (stereo partly drawn) [GlcNAc, N-acetylglucosamine]
myogenesis (GlcNAc vs glucosamine) (C2C12 cells [1]): Promotes the Myogenesis | myogenesis (GlcNAc vs glucosamine) (C2C12 cells [1]; listed as N-acetylglucosamine): increases the formation of myotubes | number of multinuclear MHC expressing myotubes (C2C12 cells [1]; FIG. 1): increases the number of multinuclear MHC expressing myotubes | number of multinuclear MHC expressing myotubes (C2C12 cells [1]; FIG. 1, listed as N-acetylglucosamine): increase of myogenesis of mouse myoblasts | number, length and width of myotubes (C2C12 cells [1]; C2C12, differentiation stopped at 62 hours, FIGS. 2A and 2B): increased not only the number of multinuclear MHC expressing myotubes but also the length and width of the myotubes | myogenesis of C2C12 cells (C2C12 cells [1]; dose of 0.2 mM, 72 hours, FIG. 1): promotes myogenesis of C2C12 cells | myoblast differentiation / myogenesis in the presence of Simvastatin (C2C12 cells [2]): renders myoblast appropriate differentiation even in the presence of Simvastatin | myoblast differentiation / myogenesis in the presence of Simvastatin (C2C12 cells [2]; listed as N-acetylglucosamine): restores the myogenesis that is partially impaired by statin | adhesion of myotubes (C2C12 cells [2]; with Simvastatin, preliminary data not shown): stabilizes the adhesion of myotubes | myogenesis of human myoblasts of DM1 [3]: promote the myogenesis of human myoblasts of DM1 | myogenesis of human myoblasts of DM1 ([3]; listed as N-acetylglucosamine): increase of the myogenesis of human myoblasts | adverse effect [4]: not to have any significant adverse effect

formation of myotube in the presence of Simvastatin alone (C2C12 cells [2]): the formation of myotube was reduced
SMILES: CCC(C)(C)C(=O)O[C@H]1C[C@@H](C)C=C2C=C[C@H](C)[C@H](CC[C@@H]3C[C@@H](O)CC(=O)O3)[C@H]21 [Simvastatin, reference compound]

SMILES: N[C@H]1C(O)O[C@H](CO)[C@@H](O)[C@@H]1O (stereo partly drawn) [glucosamine]
myogenesis (GlcNAc vs glucosamine) (C2C12 cells [1]): fails to promote the myogenesis; also recorded: inhibition of myogenesis; also recorded: fails to induce any positive impact on the myogenesis | cell toxicity (C2C12 cells [5]): showed toxicity to the myotubes; also recorded: induce cell toxicity

— US10912787B2, “Use of N-acetylglucosamine and derivatives thereof to treat muscle disorders” (PUREPHARM INC., priority 2017, dated 2021)
